Reference: patent publication US20240350511A1, “TREATMENT OF COVID-19” (priority 2021, published 2024)
Read-outs that look alike come from different tables or passages of the source.

Tests used:
[1] = Aggregation study: UV-Vis spectra before and after 0.22 μm filtration; assay type: physicochemical; conditions: DMSO stock diluted with saline, 4 hours at room temperature, 0.22 μm disc filter
Procedure: The drug concentration was […]. The sample was left for 4 hours at room temperature. UV-visible absorbance spectra of the solution before and after filtration (employing a 0.22 μm disc filter) were measured.
The formulations were placed in an ultrasonic bath at elevated temperature (40° C.) for 6 hours. After cooling to room temperature, UV-Vis spectra were measured for unfiltered solutions as well as for the solutions after filtration using a 0.22 μm disc filter.

[2] = Dissolved fraction in gamma-cyclodextrin solution, filtered vs unfiltered absorbance at 300 nm; assay type: physicochemical; conditions: for bazedoxifene acetate dissolved: sonicated at 40° C. for 6 hours
Procedure: 1.2 mL of a 40 mg/mL solution of GCD in distilled water was added into the microtube. The solution was sonicated at 40° C. for 6 hours. […] The concentration of GCD remained the same in all solutions, specifically 40 mg/mL.
Aliquots of the solutions were filtered through a 0.22 μm disc filter.
1.5 mL of a 40 mg/mL solution of gamma-cyclodextrin in saline was added into the microtube. The solution was sonicated at 40° C. for 6 hours. […] The concentration of gamma-cyclodextrin remained the same in all solutions, specifically 40 mg/mL.
1.2 mL of a 40 mg/mL solution of GCD in phosphate-buffered saline was added into the microtube. The solution was sonicated at 40° C. for 6 hours. […] The concentration of GCD remained the same in all solutions, specifically. 40 mg/ml.
The resulting mixture was ground for 20 minutes at a set grinding speed of 1000 rpm and a grinding temperature of 37° C.
20 mg of the ground mixture was weighed into a microtube and combined with 0.5 mL distilled water. The sample was then sonicated for 5 minutes at 45° C.
An aliquot of the sonicated solution was filtered through a 0.22 μm disc filter.

[3] = rats, bazedoxifene acetate in SBECD
[4] = healthy volunteers, inhalation of BAZE-X1 1.13 mg
clinical = conditions: both, human, in vivo, inhaled or intranasal, 1.13 mg

Structure (SMILES)	absorbance features of the drug after filtration (aggregation) [1]	bazedoxifene acetate dissolved ([2]; 40 mg/mL GCD in distilled water)	bazedoxifene acetate dissolved ([2]; 40 mg/mL GCD in phosphate-buffered saline)	bazedoxifene acetate dissolved ([2]; 40 mg/mL gamma-cyclodextrin in saline)	starting bazedoxifene dissolved ([2]; mixture ground with GCD (50 mg:250 mg), 20 mg in 0.5 mL distilled water, sonicated 5 minutes at 45° C.)	pathological lesions in the lungs and trachea ([3]; single intranasal 0.5 mg/kg)	pathological lesions in the lungs and trachea ([3]; single intravenous 0.5 mg/kg)	plasma levels (pg/mL) and AUC values (h·pg/mL) [4]	time to maximum plasma concentration ([4]; first measurement)	half-life (clinical)
Cc1c(-c2ccc(O)cc2)n(Cc2ccc(OCCN3CCCCCC3)cc2)c2ccc(O)cc12 [bazedoxifene acetate]	sharp decrease in absorbance features	97%	95%	92%	–	–	–	–	–	–
Cc1c(-c2ccc(O)cc2)n(Cc2ccc(OCCN3CCCCCC3)cc2)c2ccc(O)cc12 [bazedoxifene]	–	–	–	–	99%	did not cause pathological lesions	did not cause pathological lesions	very low, in majority near the limit of quantitation	10 min	21 h
